Legend:
Type in all cases: biochemical
[1] = molecular target: T1, Human JAK3 (Homo sapiens, UniProt P52333); experiment: In-vitro kinase inhibition test, JAK3; conditions: compound at 1 uM; read-out: JAK3 kinase-phosphorylation inhibitory level (% inhibition)
T1 construct: purchased Millipore, Germany
T1 sequence (P52333 1-1124): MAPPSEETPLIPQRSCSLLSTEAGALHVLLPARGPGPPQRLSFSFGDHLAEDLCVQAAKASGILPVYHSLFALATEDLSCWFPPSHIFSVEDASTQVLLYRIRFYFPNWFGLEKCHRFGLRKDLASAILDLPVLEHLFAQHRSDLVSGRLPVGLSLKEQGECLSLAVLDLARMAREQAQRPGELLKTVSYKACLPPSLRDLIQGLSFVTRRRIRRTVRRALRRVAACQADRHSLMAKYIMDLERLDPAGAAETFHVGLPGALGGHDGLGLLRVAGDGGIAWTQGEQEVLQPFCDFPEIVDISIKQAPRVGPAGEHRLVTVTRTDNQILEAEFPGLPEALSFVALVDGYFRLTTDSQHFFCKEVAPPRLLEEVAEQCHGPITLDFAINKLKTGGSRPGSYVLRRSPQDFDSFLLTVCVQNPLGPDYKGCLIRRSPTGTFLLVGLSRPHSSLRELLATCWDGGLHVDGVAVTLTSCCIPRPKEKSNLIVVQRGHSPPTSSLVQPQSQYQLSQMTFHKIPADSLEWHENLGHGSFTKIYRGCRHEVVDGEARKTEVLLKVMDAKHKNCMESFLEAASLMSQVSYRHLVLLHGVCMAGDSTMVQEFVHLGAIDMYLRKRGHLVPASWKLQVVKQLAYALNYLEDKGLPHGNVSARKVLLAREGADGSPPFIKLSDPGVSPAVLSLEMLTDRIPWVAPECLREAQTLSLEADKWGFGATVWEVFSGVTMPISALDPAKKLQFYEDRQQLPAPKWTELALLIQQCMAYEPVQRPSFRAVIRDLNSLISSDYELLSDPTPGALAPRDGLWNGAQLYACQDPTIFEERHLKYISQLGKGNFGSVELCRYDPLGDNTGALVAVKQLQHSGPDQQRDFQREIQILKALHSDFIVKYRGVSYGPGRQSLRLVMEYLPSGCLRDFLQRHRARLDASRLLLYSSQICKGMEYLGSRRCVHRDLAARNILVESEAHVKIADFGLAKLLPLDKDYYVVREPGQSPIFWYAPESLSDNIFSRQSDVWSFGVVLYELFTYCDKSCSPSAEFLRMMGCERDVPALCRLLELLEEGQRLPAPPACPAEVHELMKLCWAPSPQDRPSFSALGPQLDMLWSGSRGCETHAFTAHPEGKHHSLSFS

[2] = molecular target: T2, Human JAK2 (Homo sapiens, UniProt O60674); experiment: In-vitro kinase inhibition test, JAK2; conditions: compound at 1 uM; read-out: JAK2 kinase-phosphorylation inhibitory level (% inhibition)
T2 construct: purchased Millipore, Germany
T2 sequence (O60674 whole entry): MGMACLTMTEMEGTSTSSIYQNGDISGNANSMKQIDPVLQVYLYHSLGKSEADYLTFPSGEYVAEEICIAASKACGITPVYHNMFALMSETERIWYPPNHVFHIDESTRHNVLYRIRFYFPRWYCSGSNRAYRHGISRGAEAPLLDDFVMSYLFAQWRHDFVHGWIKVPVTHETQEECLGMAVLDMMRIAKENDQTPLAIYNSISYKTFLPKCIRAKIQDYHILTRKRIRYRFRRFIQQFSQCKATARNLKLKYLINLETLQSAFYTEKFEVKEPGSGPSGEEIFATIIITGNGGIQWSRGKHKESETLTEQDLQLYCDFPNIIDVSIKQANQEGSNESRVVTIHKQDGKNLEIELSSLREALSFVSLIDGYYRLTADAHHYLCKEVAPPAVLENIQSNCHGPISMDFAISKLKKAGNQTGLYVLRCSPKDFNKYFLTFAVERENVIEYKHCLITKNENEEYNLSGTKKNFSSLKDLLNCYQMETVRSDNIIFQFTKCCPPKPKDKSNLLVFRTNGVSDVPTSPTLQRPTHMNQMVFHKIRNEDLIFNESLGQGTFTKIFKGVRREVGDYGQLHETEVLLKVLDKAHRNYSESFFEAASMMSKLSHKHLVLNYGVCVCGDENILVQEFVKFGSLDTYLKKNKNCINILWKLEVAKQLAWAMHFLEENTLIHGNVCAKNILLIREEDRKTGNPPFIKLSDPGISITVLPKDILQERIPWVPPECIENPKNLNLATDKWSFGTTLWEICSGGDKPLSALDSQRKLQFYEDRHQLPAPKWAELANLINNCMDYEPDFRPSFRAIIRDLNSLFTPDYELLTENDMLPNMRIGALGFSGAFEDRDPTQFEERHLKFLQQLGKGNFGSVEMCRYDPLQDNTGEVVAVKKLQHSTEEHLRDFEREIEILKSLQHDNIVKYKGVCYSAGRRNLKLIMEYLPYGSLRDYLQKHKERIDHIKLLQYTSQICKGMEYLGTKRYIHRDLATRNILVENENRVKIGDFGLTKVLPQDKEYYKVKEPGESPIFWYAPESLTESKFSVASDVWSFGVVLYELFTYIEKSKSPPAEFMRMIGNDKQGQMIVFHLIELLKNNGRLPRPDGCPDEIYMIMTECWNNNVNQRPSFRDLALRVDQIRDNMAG
Protocol: (§1) Human-derived JAK1, JAK2, JAK3 and TYK2 (Millipore, Germany) were used as kinases. Each kinase was diluted with an appropriate buffer as described below, and then mixed with reaction reagents.
(§2) 3-morpholinopropane-1-sulfonic acid (MOPS) and EDTA were dissolved in deionized water at a concentration of 20 mM and 1 mM, respectively, and then 100 μL of β-mercaptoethanol, 10 μL of Brij-35™, 5 mL of glycerol, and 100 mg of bovine serum albumin (BSA), each per 100 mL of the solution, were added to the solution, thereby preparing a dilution buffer for JAK2, JAK3, and TYK2.
(§3) Each compound was dissolved in a 100%-DMSO solution at a concentration of about 50 μM. This prepared solution was reacted with reaction reagents in each well of a 96-well plate until a final concentration of the compound reached 1 μM. A detailed experimental method for each kinase is as follows.
(§4) After reaction for about 40 minutes at room temperature, the reaction was stopped by adding 5 uL of a 3% (v/v) phosphoric acid solution.
(§5) The inhibitory levels (% inhibition) represent a percentage of reduction in phosphorylation activity in each test group with respect to the phosphorylation activity of a corresponding kinase in a negative control group lacking any of the compounds synthesized in the examples. % inhibition=[(Scintillation value of Test compound non-treatment group−Scintillation value of Test compound treatment group)/(Scintillation value of Test compound non-treatment group)]×100

[3] = molecular target: T3, Human JAK1 (Homo sapiens, UniProt P23458); experiment: In-vitro kinase inhibition test, JAK1; conditions: for inhibition at 1 µM: compound at 1 uM, read-out: JAK1 kinase-phosphorylation inhibitory level (% inhibition); for JAK1/JAK2: ratio of % inhibition of JAK1 to JAK2 at 1 uM
T3 construct: purchased Millipore, Germany
T3 sequence (P23458 whole entry): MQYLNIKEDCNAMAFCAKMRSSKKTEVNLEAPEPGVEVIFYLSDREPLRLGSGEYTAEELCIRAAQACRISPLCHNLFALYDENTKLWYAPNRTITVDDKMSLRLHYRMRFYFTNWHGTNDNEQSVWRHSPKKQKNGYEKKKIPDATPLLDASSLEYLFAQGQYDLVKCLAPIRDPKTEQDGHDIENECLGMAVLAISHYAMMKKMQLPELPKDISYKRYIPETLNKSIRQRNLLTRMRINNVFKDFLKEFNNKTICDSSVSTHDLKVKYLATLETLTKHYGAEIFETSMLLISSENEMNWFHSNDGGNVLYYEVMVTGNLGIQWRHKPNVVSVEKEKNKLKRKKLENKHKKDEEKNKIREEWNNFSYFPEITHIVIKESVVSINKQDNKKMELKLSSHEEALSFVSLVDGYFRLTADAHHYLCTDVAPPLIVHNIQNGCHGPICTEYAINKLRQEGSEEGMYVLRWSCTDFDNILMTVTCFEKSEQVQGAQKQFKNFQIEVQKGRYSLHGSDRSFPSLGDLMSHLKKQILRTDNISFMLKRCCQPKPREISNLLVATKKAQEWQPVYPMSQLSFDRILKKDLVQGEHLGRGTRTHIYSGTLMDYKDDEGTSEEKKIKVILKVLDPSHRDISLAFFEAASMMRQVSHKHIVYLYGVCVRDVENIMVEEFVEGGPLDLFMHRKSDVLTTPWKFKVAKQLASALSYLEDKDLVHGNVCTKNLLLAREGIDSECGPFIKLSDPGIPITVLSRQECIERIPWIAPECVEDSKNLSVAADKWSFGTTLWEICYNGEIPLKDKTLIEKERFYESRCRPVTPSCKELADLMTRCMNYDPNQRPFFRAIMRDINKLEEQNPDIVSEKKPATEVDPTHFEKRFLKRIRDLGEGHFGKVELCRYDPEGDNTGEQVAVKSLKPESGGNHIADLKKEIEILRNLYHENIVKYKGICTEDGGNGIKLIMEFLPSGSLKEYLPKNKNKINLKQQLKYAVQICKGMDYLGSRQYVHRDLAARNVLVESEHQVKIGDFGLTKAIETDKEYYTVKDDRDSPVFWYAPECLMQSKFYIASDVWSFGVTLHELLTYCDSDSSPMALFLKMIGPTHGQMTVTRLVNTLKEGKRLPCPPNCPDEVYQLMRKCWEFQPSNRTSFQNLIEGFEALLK

[4] = molecular target: T4, Human TYK2 (Homo sapiens, UniProt P29597); experiment: In-vitro kinase inhibition test, TYK2; conditions: compound at 1 uM; read-out: TYK2 kinase-phosphorylation inhibitory level (% inhibition)
T4 construct: purchased Millipore, Germany
T4 sequence (P29597 whole entry): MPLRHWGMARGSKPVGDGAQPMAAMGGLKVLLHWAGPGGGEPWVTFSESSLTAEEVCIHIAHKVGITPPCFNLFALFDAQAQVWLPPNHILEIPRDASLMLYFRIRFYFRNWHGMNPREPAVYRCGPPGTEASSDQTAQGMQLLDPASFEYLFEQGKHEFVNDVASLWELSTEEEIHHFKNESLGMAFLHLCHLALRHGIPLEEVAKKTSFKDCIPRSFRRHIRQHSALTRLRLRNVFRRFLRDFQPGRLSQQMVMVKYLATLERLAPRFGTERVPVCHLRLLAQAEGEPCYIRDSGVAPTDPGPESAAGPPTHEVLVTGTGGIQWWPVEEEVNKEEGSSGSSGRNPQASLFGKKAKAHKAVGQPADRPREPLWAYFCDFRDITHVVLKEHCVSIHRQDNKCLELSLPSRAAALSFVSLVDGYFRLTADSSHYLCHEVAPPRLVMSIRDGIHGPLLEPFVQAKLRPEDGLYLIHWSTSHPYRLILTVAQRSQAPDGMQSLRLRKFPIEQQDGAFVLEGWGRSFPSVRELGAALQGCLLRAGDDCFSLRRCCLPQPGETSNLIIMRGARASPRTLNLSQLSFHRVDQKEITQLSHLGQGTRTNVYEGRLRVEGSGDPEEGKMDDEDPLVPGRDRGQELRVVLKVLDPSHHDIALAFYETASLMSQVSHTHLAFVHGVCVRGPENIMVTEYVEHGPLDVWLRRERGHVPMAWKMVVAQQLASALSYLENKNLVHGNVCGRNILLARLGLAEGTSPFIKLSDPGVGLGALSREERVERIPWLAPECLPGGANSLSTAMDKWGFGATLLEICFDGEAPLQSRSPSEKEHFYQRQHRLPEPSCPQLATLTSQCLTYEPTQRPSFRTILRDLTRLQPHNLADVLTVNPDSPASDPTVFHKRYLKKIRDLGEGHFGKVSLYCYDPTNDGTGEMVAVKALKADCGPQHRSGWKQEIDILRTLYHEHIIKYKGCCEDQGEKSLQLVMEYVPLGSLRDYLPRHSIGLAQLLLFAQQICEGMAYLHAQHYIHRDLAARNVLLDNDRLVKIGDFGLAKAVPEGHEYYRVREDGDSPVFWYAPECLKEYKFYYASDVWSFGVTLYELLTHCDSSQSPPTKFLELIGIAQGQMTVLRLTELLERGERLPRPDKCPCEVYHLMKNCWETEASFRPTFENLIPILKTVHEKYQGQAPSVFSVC
Protocol: as §1, §2, §3, §4, §5

inhibition at 1 µM [1] [%] | inhibition at 1 µM [2] [%] | inhibition at 1 µM [3] [%] | inhibition at 1 µM [4] [%] | JAK1/JAK2 [3] | Structure (SMILES)
20 | 70 | 97 |  |  | CN(c1ncnc2[nH]ccc12)[C@@H]1CCN(C(=O)CC#N)C1 [Example 1, (R)-3-(3-(methyl(7H-pyrrolo[2,3-d]pyrimidine-4-yl)amino)pyrrolidine-1-yl)-3-oxopropanenitrile]
39 | 42 | 91 | 58 | 2.17 | CN(c1ncnc2[nH]ccc12)[C@@H]1CCN(CCC#N)C1 [Example 2, (R)-3-(3-(methyl(7H-pyrrolo[2,3-d]pyrimidine-4-yl)amino)pyrrolidine-1-yl)propanenitrile]
4 | 6 | 52 | 8 | ∞ | CCCCN1CC[C@@H](N(C)c2ncnc3[nH]ccc23)C1 [Example 3, (R)—N-(1-butylpyrrolidine-3-yl)-N-methyl-7H-pyrrolo[2,3-d]pyrimidine-4-amine]
33 | 79 | 98 | 86 | 1.24 | CN(c1ncnc2[nH]ccc12)[C@@H]1CCN(C(=O)CN=[N+]=[N-])C1 [Example 4, (R)-2-azido-1-(3-(methyl(7H-pyrrolo[2,3-d]pyrimidine-4-yl)amino)pyrrolidine-1-yl)ethane-1-one]
10 | 13 | 93 | 63 | 7.15 | CC(C)CC(=O)N1CC[C@@H](N(C)c2ncnc3[nH]ccc23)C1 [Example 5, (R)-3-methyl-1-(3-(methyl(7H-pyrrolo[2,3-d]pyrimidine-4-yl)amino)pyrrolidine-1-yl)butane-1-one]
9 | 9 | 93 | 34 | 10.33 | CC(C)COC(=O)N1CC[C@@H](N(C)c2ncnc3[nH]ccc23)C1 [Example 6, Isobutyl (R)-3-(methyl(7H-pyrrolo[2,3-d]pyrimidine-4-yl)amino)pyrrolidine-1-carboxylate]
42 | 68 | 97 | 72 | 1.43 | CN(c1ncnc2[nH]ccc12)[C@@H]1CCN(C(=O)Nc2ccccc2)C1 [Example 7, (R)-3-(methyl(7H-pyrrolo[2,3-d]pyrimidine-4-yl)amino)-N-phenylpyrrolidine-1-carboxamide]
21 | 7 | 91 | 59 | 13.00 | CN(c1ncnc2[nH]ccc12)[C@@H]1CCN(S(C)(=O)=O)C1 [Example 8, (R)—N-methyl-N-(1-(methylsulfonyl)pyrrolidine-3-yl)-7H-pyrrolo[2,3-d]pyrimidine-4-amine]
11 | 9 | 90 | 59 | 10.00 | CN(c1ncnc2[nH]ccc12)[C@@H]1CCN(S(=O)(=O)C(F)(F)F)C1 [Example 9, (R)—N-methyl-N-(1-((trifluoromethyl)sulfonyl)pyrrolidine-3-yl)-7H-pyrrolo[2,3-d]pyrimidine-4-amine]
22 | 27 | 94 | 74 | 3.48 | CCS(=O)(=O)N1CC[C@@H](N(C)c2ncnc3[nH]ccc23)C1 [Example 10, (R)—N-(1-(ethylsulfonyl)pyrrolidine-3-yl)-N-methyl-7H-pyrrolo[2,3-d]pyrimidine-4-amine]
20 | 62 | 95 | 78 | 1.55 | CCCS(=O)(=O)N1CC[C@@H](N(C)c2ncnc3[nH]ccc23)C1 [Example 11, (R)—N-methyl-N-(1-(propylsulfonyl)pyrrolidine-3-yl)-7H-pyrrolo[2,3-d]pyrimidine-4-amine]
13 | 11 | 86 | 47 | 7.82 | CC(C)S(=O)(=O)N1CC[C@@H](N(C)c2ncnc3[nH]ccc23)C1 [Example 12, (R)—N-(1-(isopropylsulfonyl)pyrrolidine-3-yl)-N-methyl-7H-pyrrolo[2,3-d]pyrimidine-4-amine]
4 | 9 | 52 | 17 | 5.78 | CN(c1ncnc2[nH]ccc12)[C@@H]1CCN(S(=O)(=O)c2cn(C)cn2)C1 [Example 13, (R)—N-methyl-N-(1-((1-methyl-1H-imidazole-4-yl)sulfonyl)pyrrolidine-3-yl)-7H-pyrrolo[2,3-d]pyrimidine-4-amine]
17 | 69 | 99 | 91 | 1.43 | CN(c1ncnc2[nH]ccc12)[C@@H]1CCN(S(=O)(=O)c2ccccc2)C1 [Example 14, (R)—N-methyl-N-(1-(phenylsulfonyl)pyrrolidine-3-yl)-7H-pyrrolo[2,3-d]pyrimidine-4-amine]
25 | 66 | 98 | 92 | 1.48 | CN(c1ncnc2[nH]ccc12)[C@@H]1CCN(S(=O)(=O)c2ccccc2F)C1 [Example 15, (R)—N-(1-((2-fluorophenyl)sulfonyl)pyrrolidine-3-yl)-N-methyl-7H-pyrrolo[2,3-d]pyrimidine-4-amine]
47 | 93 | 98 | 98 | 1.05 | CN(c1ncnc2[nH]ccc12)[C@@H]1CCN(S(=O)(=O)c2cccc(F)c2)C1 [Example 16, (R)—N-(1-((3-fluorophenyl)sulfonyl)pyrrolidine-3-yl)-N-methyl-7H-pyrrolo[2,3-d]pyrimidine-4-amine]
29 | 81 | 99 | 92 | 1.22 | CN(c1ncnc2[nH]ccc12)[C@@H]1CCN(S(=O)(=O)c2ccc(F)cc2)C1 [Example 17, (R)—N-(1-((4-fluorophenyl)sulfonyl)pyrrolidine-3-yl)-N-methyl-7H-pyrrolo[2,3-d]pyrimidine-4-amine]
22 | 73 | 97 | 81 | 1.33 | CN(c1ncnc2[nH]ccc12)[C@@H]1CCN(S(=O)(=O)c2ccccc2C#N)C1 [Example 18, (R)-2-((3-(methyl(7H-pyrrolo[2,3-d]pyrimidine-4-yl)amino)pyrrolidine-1-yl)sulfonyl)benzonitrile]
42 | 81 | 99 | 95 | 1.22 | CN(c1ncnc2[nH]ccc12)[C@@H]1CCN(S(=O)(=O)c2cccc(C#N)c2)C1 [Example 19, (R)-3-((3-(methyl(7H-pyrrolo[2,3-d]pyrimidine-4-yl)amino)pyrrolidine-1-yl)sulfonyl)benzonitrile]
9 | 46 | 97 | 84 | 2.11 | CN(c1ncnc2[nH]ccc12)[C@@H]1CCN(S(=O)(=O)c2ccc(C#N)cc2)C1 [Example 20, (R)-4-((3-(methyl(7H-pyrrolo[2,3-d]pyrimidine-4-yl)amino)pyrrolidine-1-yl)sulfonyl)benzonitrile]
27 | -6 | 23 |  |  | CN(c1ncnc2[nH]ccc12)[C@H]1CCN(C(=O)CC#N)C1 [Example 31, (S)-3-(3-(methyl(7H-pyrrolo[2,3-d]pyrimidine-4-yl)amino)pyrrolidine-1-yl)-3-oxopropanenitrile]
